Assay results reported in patent US5707615A, “Method of treating HIV infections with anti-viral formulations” (Merrell Pharmaceuticals Inc., priority 1997, dated 1998).

Tests used:
[1] = test system: HIV strain RF; experiment: Ability to prevent virus-induced cell death using MT4 cells and strain RF (Example III); assay type: cell-based; conditions: MT4 cells, 7 days, MTT
Procedure, shortened: (§1)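 MT4 cells (5×10^4/well) plus 100 TCID50 HIV RF added to doubling dilutions of oligomers in RPMI, incubated 7 days at 37° C. Viability by MTT, 2 h further incubation, formazan dissolved in acidic isopropanol, absorbance at 540 nm.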

[2] = test system: HIV-I (GB8); experiment: Pretreatment of JM cells and block of HIV-I (GB8) infection (Example IV); conditions: pretreated overnight at 20 μg/mL
Method: JM cells were pretreated overnight at 37° C. with different compounds at 20 μg/mL or left untreated. The cells were washed 3 times in RPMI medium and then infected with HIV-I (GB8) for 2 hours at room temperature. The cells were again washed 3 times in RPMI medium and resuspended in fresh medium prior to being distributed into duplicate wells and incubated at 37° C. After 2 days syncytia were scored and the cell free supernatant fluid harvested and assayed for P24 viral core antigen using the Coulter™ HIV antigen assay.

[3] = in vivo; cited from earlier work
[4] = test system: HIV-I, GB8; experiment: Ability to prevent syncytia formation and expression of P24 viral core antigen using JM cells and GB8 virus strain (Example I); assay type: cell-based; conditions: for P24 % CONTROL: 4320 min
Method: The virus was first incubated with an oligomer for 15 minutes and then the cells were added. After 2 hours adsorption, the virus innoculum was removed and the cells were washed three times to remove traces of input virus. Antiviral activity was determined after 3 days incubation by plotting the mean number of syncytia found in quadruple cultures against log10 concentration of anionic polymer or of other test compounds. The potency of an oligomer was also measured by assaying viral core antigen (P24 test-Abbott) in the supernatant fluid. Heparin, dextran sulfate, rs CD4, ATZ and/or ddC data, when included in any of the following Tables, are provided as positive controls.

[5] = test system: GB8 virus in JM cells; experiment: Virus infection of JM cells with GB8 in the presence of test compounds: syncytia and P24 (Example II); conditions: for SYNCYTIA % / P24 %: % of control; for SYNCYTIA %: 2880 min; for P24 %: 5760 min
Method: Virus infection of JM cells was carried out in the presence of different concentrations of test compounds. JM cells (1×10^5) and 50-100 syncytial forming units of virus (GB8) were added to duplicate wells of a tissue culture plate containing 1 mL volumes of growth medium with or without drug. The plate was incubated for 2 days at 37° C. and then scored for the presence of syncytia. At the same time the cells were washed and the growth medium replaced. After a further two days incubation, the cell free supernatant fluids were harvested and assayed for levels of P24 viral core antigen using the Coulter™ HIV Antigen assay.

[6] = test system: viral protein which is responsible for cell recognition; conditions: cited from earlier work
[7] = test system: MT4 cells; experiment: Toxicity to MT4 cells (TD50, Table IV, MTT); assay type: cell-based; conditions: human, mt4 cells, 168 h
Procedure, shortened: as §1

In the case of Heparin [reference compound], the ED50 [1] is reported as 4.6 µg/mL, the P24 [2] is reported as 29090 pg/mL and the “MEAN SYNCYTIA” value ([2]; 2 days) is reported as 136. For the same substance, the P24 % ([2]; % of control, 2880 min) was 103%, the SYNCYTIA % ([2]; % of control, 2880 min) was 114% and the side effects [3] was “hemorrhage and increased clot formation time as well as thrombocytopenia”. For the same substance, the P24 ([4]; 0.6 μg/mL) was 44570 pg/mL, the “P24 % CONTROL” value ([4]; 0.6 μg/mL) was 0.1% and the P24 ([4]; 2.5 μg/mL) was 25775 pg/mL. For the same substance, the “P24 % CONTROL” value ([4]; 2.5 μg/mL) was less than 0.1%, the P24 ([4]; 5.0 μg/mL) was 2500 pg/mL and the “P24 % CONTROL” value ([4]; 5.0 μg/mL) was less than 0.1%. For the same substance, the SYNCYTIA ([4]; 5.0 μg/mL, after 3 days) was 0, the “SYNCYTIA (2 DAYS) MEAN” value ([5]; Table II, 0.01 μg/mL) was 38 and the SYNCYTIA % ([5]; Table II, 0.01 μg/mL) was 90%. The “SYNCYTIA (2 DAYS) MEAN” value ([5]; Table II, 0.03 μg/mL) was 29, the SYNCYTIA % ([5]; Table II, 0.03 μg/mL) was 69% and the “SYNCYTIA (2 DAYS) MEAN” value ([5]; Table II, 0.1 μg/mL) was 24. The SYNCYTIA % ([5]; Table II, 0.1 μg/mL) was 57%, the P24 ([5]; Table II, 0.3 μg/mL) was 4.1 × 10^4 units/mL and the “SYNCYTIA (2 DAYS) MEAN” value ([5]; Table II, 0.3 μg/mL) was 22. For the same substance, the SYNCYTIA % ([5]; Table II, 0.3 μg/mL) was 52%, the P24 % ([5]; Table II, 0.3 μg/mL) was 11% and the “SYNCYTIA (2 DAYS) MEAN” value ([5]; Table II, 1 μg/mL) was 2. The SYNCYTIA % ([5]; Table II, 1 μg/mL) was 5%, the P24 % ([5]; Table II, 1 μg/mL) was 8% and the P24 ([5]; Table II, 3 μg/mL) was 1.7 × 10^4 units/mL. The “SYNCYTIA (2 DAYS) MEAN” value ([5]; Table II, 3 μg/mL) was 0, the SYNCYTIA % ([5]; Table II, 3 μg/mL) was 0% and the P24 % ([5]; Table II, 3 μg/mL) was 5%. The “SYNCYTIA (2 DAYS) MEAN” value ([5]; Table II, 10 μg/mL) was 0, the SYNCYTIA % ([5]; Table II, 10 μg/mL) was 0% and the P24 % ([5]; Table II, 10 μg/mL) was 3%. The P24 ([5]; Table III, 1 μg/mL) was 211000 pg/mL, the “SYNCYTIA MEAN” value ([5]; Table III, 1 μg/mL) was 13 and the SYNCYTIA % ([5]; Table III, 1 μg/mL) was 19%. For the same substance, the P24 % ([5]; Table III, 1 μg/mL) was 63%, the P24 ([5]; Table III, 10 μg/mL) was 70700 pg/mL and the “SYNCYTIA MEAN” value ([5]; Table III, 10 μg/mL) was 0. The P24 % ([5]; Table III, 10 μg/mL) was 21%, the P24 ([5]; Table III, 100 μg/mL) was 989 pg/mL and the “SYNCYTIA MEAN” value ([5]; Table III, 100 μg/mL) was 0. The P24 % ([5]; Table III, 100 μg/mL) was 0.3%, the “inhibition of host cell infection” value [6] was “limited inhibition of host cell infection” and the TD50 [7] was greater than 100 µg/mL.
